Assays:
recRSV-mKate = test: microbe, parasite or virus in culture; assay type: cell-based; conditions: human respiratory syncytial virus, read-out: EC50, apical RSV shedding
measles virus polymerase = conditions: equivalent measles virus RdRP assay; cited from earlier work

| SMILES | EC50 (recRSV-mKate) [nM] | phosphodiester bond formation (measles virus polymerase) |
| --- | --- | --- |
| O=c1nc(NO)ccn1[C@@H]1O[C@H](CO)[C@@H](O)[C@H]1O [NHC, N^4-hydroxycytidine] | 50 | – |
| Cn1nc(C(F)(F)F)cc1C(=O)Nc1ccc(S(=O)(=O)N2CCCC[C@H]2CCN2CCOCC2)cc1 [ERDRP-0519] | – | completely blocks all phosphodiesterbond formation |

— article PMC9232112 (Science Advances, 2022)
